Measured values: PMC8196973, “Synthesis, Molecular Docking Analysis and Biological Evaluations of Saccharide-Modified Thiadiazole Sulfonamide Derivatives” (International Journal of Molecular Sciences, 2021)

Legend:
[1] = target: hCA IX (Homo sapiens, UniProt Q16790); test: hCA IX enzyme inhibition assay (4-NPA hydrolysis)
Protocol: (§1) Carbonic anhydrase can catalyze the hydrolysis of 4-nitrophenyl acetate (4-NPA). […] The experimental buffer consisted of 15 mmol/L 4-(2-hydroxyethyl)-1-piperazineethanesulfonic acid (HEPES) (pH = 7.40), 0.01% tetraethylene glycol monododecyl ether (Brij), and 100 mmol/L NaCl. […] Then, 18 μL of enzyme solution was transferred into 384-well plates in duplicate. Stock solutions of the inhibitors (10.0 mmol/L) were prepared using DMSO as solvent, and then diluted 1:3 with DMSO. […] Then 2.00 μL of each inhibitor was added to each well. All compounds were allowed to incubate with the enzyme for 15 min at 25 °C to form the Enzyme-Inhibitor (E-I) complex. After that, substrate 4-NPA (1.00 mmol/L, 20.00 μL, Sigma-Aldrich, St. Louis, MI, USA) was added into the E-I complex solution and incubated for 60, 90, 90 min at 25 °C, respectively.

[2] = target: hCA II (Homo sapiens, UniProt P00918); test: hCA II enzyme inhibition assay (4-NPA hydrolysis)
Protocol: as §1

[3] = target: hCA XII (Homo sapiens, UniProt O43570); test: hCA XII enzyme inhibition assay (4-NPA hydrolysis)
Sequence of hCA XII (O43570 25-354): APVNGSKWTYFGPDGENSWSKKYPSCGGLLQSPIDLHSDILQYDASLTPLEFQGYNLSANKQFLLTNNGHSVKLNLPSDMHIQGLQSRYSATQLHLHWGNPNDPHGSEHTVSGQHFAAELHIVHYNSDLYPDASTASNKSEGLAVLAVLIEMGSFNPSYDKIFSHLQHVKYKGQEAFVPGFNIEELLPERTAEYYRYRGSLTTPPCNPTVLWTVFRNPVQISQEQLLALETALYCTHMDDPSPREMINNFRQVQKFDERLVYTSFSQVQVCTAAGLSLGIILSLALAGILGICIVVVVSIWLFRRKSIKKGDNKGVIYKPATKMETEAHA
Protocol: as §1

Row | SMILES | IC50 [1] [nM] | IC50 [2] [nM] | selectivity: inhibitory activity for hCA IX higher than that for hCA II ([1]; hCA IX over hCA II) [times] | IC50 [3] [nM]
1 | Nc1ccc(C(=O)Nc2nnc(S(N)(=O)=O)s2)cc1 [Compound 12a, 4-Amino-N-(5-sulfamoyl-1,3,4-thiadiazol-2-yl)benzamide] | 44.6 ± 8.3 | – | – | –
2 | Nc1cccc(C(=O)Nc2nnc(S(N)(=O)=O)s2)c1 [Compound 12b, 3-Amino-N-(5-sulfamoyl-1,3,4-thiadiazol-2-yl)benzamide] | 63.8 ± 6.3 | 79.1 ± 5.4 | – | –
3 | Nc1ccc(C(=O)Nc2nnc(S(N)(=O)=O)s2)cc1F [Compound 12c, 4-Amino-3-fluoro-N-(5-sulfamoyl-1,3,4-thiadiazol-2-yl)benzamide] | 41.3 ± 6.2 | 242 ± 9.4 | – | –
4 | Nc1ccc(C(=O)Nc2nnc(S(N)(=O)=O)s2)cc1Cl [Compound 12d, 4-Amino-3-chloro-N-(5-sulfamoyl-1,3,4-thiadiazol-2-yl)benzamide] | 36.5 ± 7.6 | 401 ± 12.3 | – | –
5 | Nc1ccc(C(=O)Nc2nnc(S(N)(=O)=O)s2)cc1Br [Compound 12e, 4-Amino-3-bromo-N-(5-sulfamoyl-1,3,4-thiadiazol-2-yl)benzamide] | 65.9 ± 8.3 | 543 ± 10.3 | – | –
6 | Nc1ccc(C(=O)Nc2nnc(S(N)(=O)=O)s2)cc1[N+](=O)[O-] [Compound 12f, 4-Amino-3-nitro-N-(5-sulfamoyl-1,3,4-thiadiazol-2-yl)benzamide] | 55.1 ± 11.5 | 701 ± 13.2 | 10 | –
7 | Cc1cc(C(=O)Nc2nnc(S(N)(=O)=O)s2)ccc1N [Compound 12g, 4-Amino-3-methyl-N-(5-sulfamoyl-1,3,4-thiadiazol-2-yl)benzamide] | 43.8 ± 6.6 | 120 ± 14.8 | – | –
8 | COc1cc(C(=O)Nc2nnc(S(N)(=O)=O)s2)ccc1N [Compound 12h, 4-Amino-3-methoxy-N-(5-sulfamoyl-1,3,4-thiadiazol-2-yl)benzamide] | 36.4 ± 8.3 | 147 ± 15.3 | – | –
9 | NS(=O)(=O)c1nnc(NC(=O)c2ccc(NC(=O)CCCC(=O)N[C@@H]3O[C@H](CO)[C@@H](O)[C@H](O)[C@H]3O)c(F)c2)s1 [Compound 14c, N^1-(2-Fluoro-4-((5-sulfamoyl-1,3,4-thiadiazol-2-yl)carbamoyl)phenyl)-N^5-((2R,3R,4S,5S,6R)-3,4,5-trihydroxy-6-(hydroxymethyl)tetrahydro-2H-pyran-2-yl)glutaramide] | 76.6 ± 6.2 | 215 ± 9.5 | – | 81.8 ± 11.1
10 | NS(=O)(=O)c1nnc(NC(=O)c2ccc(NC(=O)CCCC(=O)N[C@@H]3O[C@H](CO)[C@@H](O)[C@H](O)[C@H]3O)c(Cl)c2)s1 [Compound 14d, N^1-(2-Chloro-4-((5-sulfamoyl-1,3,4-thiadiazol-2-yl)carbamoyl)phenyl)-N^5-((2R,3R,4S,5S,6R)-3,4,5-trihydroxy-6-(hydroxymethyl)tetrahydro-2H-pyran-2-yl)glutaramide] | 280 ± 10.2 | 765 ± 15.1 | – | –
11 | NS(=O)(=O)c1nnc(NC(=O)c2ccc(NC(=O)CCCC(=O)N[C@@H]3O[C@H](CO)[C@@H](O)[C@H](O)[C@H]3O)c(Br)c2)s1 [Compound 14e, N^1-(2-Bromo-4-((5-sulfamoyl-1,3,4-thiadiazol-2-yl)carbamoyl)phenyl)-N^5-((2R,3R,4S,5S,6R)-3,4,5-trihydroxy-6-(hydroxymethyl)tetrahydro-2H-pyran-2-yl)glutaramide] | 1082 ± 8.5 | 886 ± 13.7 | – | –
12 | NS(=O)(=O)c1nnc(NC(=O)c2ccc(NC(=O)CCCC(=O)N[C@@H]3O[C@H](CO)[C@@H](O)[C@H](O)[C@H]3O)c([N+](=O)[O-])c2)s1 [Compound 14f, N^1-(2-Nitro-4-((5-sulfamoyl-1,3,4-thiadiazol-2-yl)carbamoyl)phenyl)-N^5-((2R,3R,4S,5S,6R)-3,4,5-trihydroxy-6-(hydroxymethyl)tetrahydro-2H-pyran-2-yl)glutaramide] | 117 ± 6.9 | 995 ± 10.6 | – | –
13 | Cc1cc(C(=O)Nc2nnc(S(N)(=O)=O)s2)ccc1NC(=O)CCCC(=O)N[C@@H]1O[C@H](CO)[C@@H](O)[C@H](O)[C@H]1O [Compound 14g, N^1-(2-Methyl-4-((5-sulfamoyl-1,3,4-thiadiazol-2-yl)carbamoyl)phenyl)-N^5-((2R,3R,4S,5S,6R)-3,4,5-trihydroxy-6-(hydroxymethyl)tetrahydro-2H-pyran-2-yl)glutaramide] | 53.4 ± 6.2 | 165 ± 9.1 | – | 70.5 ± 10.9
14 | NS(=O)(=O)c1nnc(NC(=O)c2ccc(NC(=O)CCC(=O)NC3OC(CO)C(O)C(O)C3O)cc2)s1 [Compound 14i, N^1-(4-((5-Sulfamoyl-1,3,4-thiadiazol-2-yl)carbamoyl)phenyl)-N^4-((2R,3R,4S,5S,6R)-3,4,5-trihydroxy-6-(hydroxymethyl)tetrahydro-2H-pyran-2-yl)succinimide] | 54.9 ± 6.2 | 197 ± 7.9 | – | 52.8 ± 11.4
15 | NS(=O)(=O)c1nnc(NC(=O)c2cccc(NC(=O)CCC(=O)N[C@@H]3O[C@H](CO)[C@@H](O)[C@H](O)[C@H]3O)c2)s1 [Compound 14j, N^1-(3-((5-Sulfamoyl-1,3,4-thiadiazol-2-yl)carbamoyl)phenyl)-N^4-((2R,3R,4S,5S,6R)-3,4,5-trihydroxy-6-(hydroxymethyl)tetrahydro-2H-pyran-2-yl)succinimide] | 69.4 ± 5.7 | 260 ± 12.6 | – | 40.6 ± 6.9
16 | NS(=O)(=O)c1nnc(NC(=O)c2ccc(NC(=O)CCC(=O)N[C@@H]3O[C@H](CO)[C@@H](O)[C@H](O)[C@H]3O)c(F)c2)s1 [Compound 14k, N^1-(2-Fluoro-4-((5-sulfamoyl-1,3,4-thiadiazol-2-yl)carbamoyl)phenyl)-N^4-((2R,3R,4S,5S,6R)-3,4,5-trihydroxy-6-(hydroxymethyl)tetrahydro-2H-pyran-2-yl)succinimide] | 141 ± 8.1 | 474 ± 7.1 | – | –
17 | NS(=O)(=O)c1nnc(NC(=O)c2ccc(NC(=O)CCC(=O)N[C@@H]3O[C@H](CO)[C@@H](O)[C@H](O)[C@H]3O)c(Cl)c2)s1 [Compound 14l, N^1-(2-Chloro-4-((5-sulfamoyl-1,3,4-thiadiazol-2-yl)carbamoyl)phenyl)-N^4-((2R,3R,4S,5S,6R)-3,4,5-trihydroxy-6-(hydroxymethyl)tetrahydro-2H-pyran-2-yl)succinimide] | 256 ± 7.9 | 612 ± 8.5 | – | –
18 | NS(=O)(=O)c1nnc(NC(=O)c2ccc(NC(=O)CCC(=O)N[C@@H]3O[C@H](CO)[C@@H](O)[C@H](O)[C@H]3O)c(Br)c2)s1 [Compound 14m, N^1-(2-Bromo-4-((5-sulfamoyl-1,3,4-thiadiazol-2-yl)carbamoyl)phenyl)-N^4-((2R,3R,4S,5S,6R)-3,4,5-trihydroxy-6-(hydroxymethyl)tetrahydro-2H-pyran-2-yl)succinimide] | 865 ± 10.7 | 824 ± 11.1 | – | –
19 | NS(=O)(=O)c1nnc(NC(=O)c2ccc(NC(=O)CCC(=O)N[C@@H]3O[C@H](CO)[C@@H](O)[C@H](O)[C@H]3O)c([N+](=O)[O-])c2)s1 [Compound 14n, N^1-(2-Nitro-4-((5-sulfamoyl-1,3,4-thiadiazol-2-yl)carbamoyl)phenyl)-N^4-((2R,3R,4S,5S,6R)-3,4,5-trihydroxy-6-(hydroxymethyl)tetrahydro-2H-pyran-2-yl)succinimide] | 291 ± 10.9 | 1400 ± 24.6 | – | –
20 | Cc1cc(C(=O)Nc2nnc(S(N)(=O)=O)s2)ccc1NC(=O)CCC(=O)N[C@@H]1O[C@H](CO)[C@@H](O)[C@H](O)[C@H]1O [Compound 14o, N^1-(2-Methy-4-((5-sulfamoyl-1,3,4-thiadiazol-2-yl)carbamoyl)phenyl)-N^4-((2R,3R,4S,5S,6R)-3,4,5-trihydroxy-6-(hydroxymethyl)tetrahydro-2H-pyran-2-yl)succinimide] | 135 ± 7 | 270 ± 13.9 | – | –
